Test results taken from publication PMC11210812, “Assessment of polymeric mucin–drug interactions” (PLOS ONE, 2024).

Key:
Assay in all cases: mucin fluorescence quenching, Lineweaver-Burk fit
Format in all cases: binding
[1] = biological target: T1, MUC5AC (Homo sapiens, UniProt P98088); settings: for Kd (μM) / MUC5AC: PBS pH 7.4, 37 °C, unreliable (Kd above highest concentration tested)
T1 construct: native secreted polymeric gel-forming mucin, O-glycosylated, disulfide-linked; purified from human cell culture by two-step CsCl density gradient
Text: mucin fluorescence quenching, Lineweaver-Burk fit on MUC5AC

[2] = biological target: T2, MUC2 (Homo sapiens, UniProt Q02817); settings: for Kd (μM) / MUC2: PBS pH 7.4, 37 °C, unreliable (Kd above highest concentration tested)
T2 construct: native secreted polymeric gel-forming mucin, O-glycosylated, disulfide-linked; purified from human cell culture by two-step CsCl density gradient
Text: mucin fluorescence quenching, Lineweaver-Burk fit on MUC2

[3] = biological target: T3, MUC5B (Homo sapiens, UniProt Q9HC84); settings: for Kd (μM) / MUC5B: PBS pH 7.4, 37 °C, unreliable (Kd above highest concentration tested)
T3 construct: native secreted polymeric gel-forming mucin, O-glycosylated, disulfide-linked; purified from human cell culture by two-step CsCl density gradient
Text: mucin fluorescence quenching, Lineweaver-Burk fit on MUC5B

Structure (SMILES)	Kd [1] [µM]	Kd [2] [µM]	Kd [3] [µM]	Kd (μM) / MUC2 ([2]; drug 0-200 μM) [µM]	Kd (μM) / MUC5B ([3]; drug 0-200 μM) [µM]	other results
O=c1[nH]cc(F)c(=O)[nH]1 [5-Fluorouracil]	124 ± 1.5	136 ± 12.1	143 ± 17			
Cc1cc(=O)n(-c2ccccc2)n1C [Antipyrine]				393.1 ± 26.2	386.0 ± 49.3	Kd (μM) / MUC5AC ([1]; drug 0-200 μM): 302.0 ± 6.7 µM
COC1=CC(=O)C[C@@H](C)[C@]12Oc1c(Cl)c(OC)cc(OC)c1C2=O [Griseofulvin]						Kd (μM) / MUC5AC ([1]; drug 0-20 μM): 25.4 ± 1.6 µM; Kd (μM) / MUC2 ([2]; drug 0-20 μM): 45.3 ± 9.6 µM; Kd (μM) / MUC5B ([3]; drug 0-20 μM): 29.9 ± 5.0 µM
CC(=O)O[C@H]1C(=O)[C@@]2(C)[C@H]([C@H](OC(=O)c3ccccc3)[C@]3(O)C[C@H](OC(=O)[C@H](O)[C@@H](NC(=O)c4ccccc4)c4ccccc4)C(C)=C1C3(C)C)[C@]1(OC(C)=O)CO[C@@H]1C[C@@H]2O [Paclitaxel]	87.6 ± 7	163 ± 39.1			288.0 ± 24.9	
CO[C@H]1/C=C/O[C@@]2(C)Oc3c(C)c(O)c4c(O)c(c(/C=N/N5CCN(C)CC5)c(O)c4c3C2=O)NC(=O)/C(C)=C\C=C\[C@H](C)[C@H](O)[C@@H](C)[C@@H](O)[C@@H](C)[C@H](OC(C)=O)[C@@H]1C [Rifampicin]						Kd (μM) / MUC5AC ([1]; drug 0-10 μM): 15.0 ± 1.5 µM; Kd (μM) / MUC2 ([2]; drug 0-10 μM): 49.7 ± 6.2 µM; Kd (μM) / MUC5B ([3]; drug 0-10 μM): 44.5 ± 7.1 µM
Cn1c(=O)c2[nH]cnc2n(C)c1=O [Theophylline]	185 ± 5.6		189 ± 7.2	390.2 ± 46.5		
